Data from US20250250285A1, “IRON-ACTIVABLE NITROGEN-CONTAINING DERIVATIVES OF SALINOMYCIN AND NARASIN, SYNTHESIS AND USE FOR THE TREATMENT OF CANCERS” (Centre National de la Recherche Scientifique, priority 2021, published 2025).
Where two headings read alike, the source gives them in different places.

Columns and labels:
[1] = test system: MCF10A; test: IC50 on nontumorigenic epithelial breast cell MCF10A; conditions: for toxicity toward nontumorigenic epithelial cells compared with respective parent compound: in words, versus parent compound
Description: (§2) Cell viability was evaluated by plating 4000 cells/well in 96-well plates using CellTiter-Blue viability assay according to the manufacturer's protocol. […] CellTiter-Blue reagent (Promega, G8081) was added after 72 h treatment and cells were incubated for 2 h before recording fluorescence intensities (ex. 560 nm; em. 590 nm) using a Perkin Elmer Wallac 1420 Victor2 Microplate Reader.
In addition to the above distinct patient-derived pancreatic ductal adenocarcinoma (PDAC) cell lines, the compounds were also evaluated against nontumorigenic epithelial breast cell MCF10A.

[2] = test system: PDAC211T; test: Cell viability (CellTiter-Blue), IC50 on PDAC211T; assay type: cell-based, human; conditions: 72 h treatment
Description: as §2

[3] = test system: PDAC053T; test: Cell viability (CellTiter-Blue), IC50 on PDAC053T; assay type: cell-based, human; conditions: for IC50: PDAC053T, 72 h treatment, CellTiter-Blue
Description: PDAC053T cells were a generous gift from Juan Iovanna (INSERM) and cultured in serum-free ductal medium as published before (Gastroenterology. 2004, 127(1):250-260). Liproxstatin-1 (Sigma Aldrich, Cat #SML1414) was used at a concentration of 1 μM.

[4] = test system: PDAC085T; test: Cell viability (CellTiter-Blue), IC50 on PDAC085T; assay type: cell-based, human; conditions: 72 h treatment
Description: as §2

[5] = test system: PDAC030T; test: Cell viability (CellTiter-Blue), IC50 on PDAC030T; assay type: cell-based, human; conditions: 72 h treatment
Description: as §2

[6] = test system: PDAC090T; test: Cell viability (CellTiter-Blue), IC50 on PDAC090T; assay type: cell-based, human; conditions: 72 h treatment
Description: as §2

[7] = test system: HMLER CD44^high/CD24^low cells; test: IC50 on HMLER CD44high/CD24low cells (breast cancer stem cell model); assay type: cell-based, human; conditions: mesenchymal state
Excerpt: (§1) The inventors also evaluated the biological activity of prodrugs and parent structures against transformed human mammary epithelial HMLER CD44^high/CD24^low cells, a model of human breast cancer stem cells stable in the mesenchymal state, and against control epithelial HMLER CD44^low/CD24^high cells.

[8] = test system: HMLER CD44^low/CD24^high cells; test: IC50 on control epithelial HMLER CD44low/CD24high cells; assay type: cell-based, human
Excerpt: as §1

[9] = MCF10A nontumorigenic epithelial breast cell

| Compound | IC50 [1, 9] [nM] | IC50 [2] [nM] | IC50 [3] [nM] | IC50 [4] [nM] | IC50 [5] [nM] | IC50 [6] [nM] | IC50 [7] [nM] | IC50 [8] [nM] | IC50 ([2]; Homo sapiens) [nM] | IC50 ([3]; Homo sapiens) [nM] | IC50 ([4]; Homo sapiens) [nM] | IC50 ([5]; Homo sapiens) [nM] | IC50 ([6]; Homo sapiens) [nM] | IC50 ([7]; Homo sapiens) [nM] | IC50 ([8]; Homo sapiens) [nM] | IC50 ([1]; Homo sapiens, MCF-10A) [nM] | toxicity toward nontumorigenic epithelial cells compared with respective parent compound [1] | potency compared with Nar-AM23 ([3]; PDAC053T cells, in words) |
| --- | --- | --- | --- | --- | --- | --- | --- | --- | --- | --- | --- | --- | --- | --- | --- | --- | --- | --- |
| C20-propargyloaminonarasin [Nar-AM5] | 220 | 220 | 880 | 120 | 220 | 800 | 110 | 1080 | – | – | – | – | – | – | – | – | – | – |
| C20-epi-ironomycin [Epi-AM5] | 1340 | 1480 | 2170 | 670 | 2870 | 4160 | 1800 | 11800 | – | – | – | – | – | – | – | – | – | – |
| CC[C@@H](C(=O)[C@@H](C)[C@@H](O)[C@H](C)[C@@H]1O[C@@H]([C@@H](CC)C(=O)OC2O[C@@H]3O[C@]4(C)CC[C@H]5[C@H](C)CC[C@@H]([C@H]2C)[C@@]35OO4)CC[C@@H]1C)[C@H]1O[C@]2(C=C[C@@H](O)[C@]3(CC[C@@](C)([C@H]4CC[C@](O)(CC)[C@H](C)O4)O3)O2)[C@H](C)C[C@@H]1C (some centres unmarked) [MA-I-023, Salinomycin-dihydroartemisinin prodrug] | – | – | – | – | – | – | – | – | 3130 | 3880 | 3320 | 750 | 4530 | 480 | 820 | – | – | – |
| CC[C@@H](C(=O)OC1O[C@@H]2O[C@]3(C)CC[C@H]4[C@H](C)CC[C@@H]([C@H]1C)[C@@]24OO3)[C@@H]1O[C@@H]([C@@H](C)[C@H](O)[C@H](C)C(=O)[C@H](CC)[C@H]2O[C@]3(C=C[C@@H](NC4CC4)[C@]4(CC[C@@](C)([C@H]5CC[C@](O)(CC)[C@H](C)O5)O4)O3)[C@H](C)C[C@@H]2C)[C@@H](C)C[C@@H]1C (some centres unmarked) [MA-I-095, C20-cyclopropylaminonarasin-dihydroartemisinin prodrug] | – | – | – | – | – | – | – | – | 490 | 90 | 70 | 120 | 180 | 760 | 1960 | 5240 | less toxic | more potent |
| C20-cyclopropyloaminonarasin [Nar-AM23] | 100 | 50 | 200 | 40 | 60 | 320 | 10 | 450 | – | – | – | – | – | – | – | – | – | – |
| C#CCN[C@@H]1C=C[C@]2(O[C@H]([C@@H](CC)C(=O)[C@@H](C)[C@@H](O)[C@H](C)[C@@H]3O[C@@H]([C@@H](CC)C(=O)OC4O[C@@H]5O[C@]6(C)CC[C@H]7[C@H](C)CC[C@@H]([C@H]4C)[C@@]57OO6)CC[C@@H]3C)[C@@H](C)C[C@H]2C)O[C@@]12CC[C@@](C)([C@H]1CC[C@](O)(CC)[C@H](C)O1)O2 (some centres unmarked) [MA-I-062, Ironomycin-dihydroartemisinin prodrug] | – | – | – | – | – | – | – | – | 100 | 1790 | 1170 | 500 | 2190 | 160 | 480 | 2030 | less toxic | – |
| CC[C@@H](C(=O)[C@@H](C)[C@@H](O)[C@H](C)[C@@H]1O[C@@H]([C@@H](CC)C(=O)O)CC[C@@H]1C)[C@H]1O[C@]2(C=C[C@@H](O)[C@]3(CC[C@@](C)([C@H]4CC[C@](O)(CC)[C@H](C)O4)O3)O2)[C@H](C)C[C@@H]1C [Salinomycin] | – | – | – | – | – | – | – | – | 1290 | 4500 | 1560 | 1610 | 2660 | 1380 | 4360 | 1130 | – | – |
| C20-cyclopropylaminosalinomycin [AM23, reference compound] | 300 | 40 | 830 | 360 | 110 | 210 | 10 | 500 | – | – | – | – | – | – | – | – | – | – |
| CC[C@@H](C(=O)O)[C@@H]1O[C@@H]([C@@H](C)[C@H](O)[C@H](C)C(=O)[C@H](CC)[C@H]2O[C@]3(C=C[C@@H](O)[C@]4(CC[C@@](C)([C@H]5CC[C@](O)(CC)[C@H](C)O5)O4)O3)[C@H](C)C[C@@H]2C)[C@@H](C)C[C@@H]1C [Narasin] | – | – | – | – | – | – | – | – | 730 | 2000 | 500 | 1180 | 1160 | 450 | 2960 | 790 | – | – |
| CC[C@@H](C(=O)OC1O[C@@H]2O[C@]3(C)CC[C@H]4[C@H](C)CC[C@@H]([C@H]1C)[C@@]24OO3)[C@@H]1O[C@@H]([C@@H](C)[C@H](O)[C@H](C)C(=O)[C@H](CC)[C@H]2O[C@]3(C=C[C@@H](O)[C@]4(CC[C@@](C)([C@H]5CC[C@](O)(CC)[C@H](C)O5)O4)O3)[C@H](C)C[C@@H]2C)[C@@H](C)C[C@@H]1C (some centres unmarked) [MA-I-081, narasin-dihydroartemisinin prodrug] | – | – | – | – | – | – | – | – | 450 | 540 | 440 | 90 | 740 | 190 | 500 | – | – | – |
| C#CCN[C@@H]1C=C[C@]2(O[C@H]([C@@H](CC)C(=O)[C@@H](C)[C@@H](O)[C@H](C)C3O[C@@H](C(CC)C(=O)OC)CC[C@@H]3C)[C@@H](C)C[C@H]2C)O[C@@]12CC[C@@](C)([C@H]1CC[C@](O)(CC)[C@H](C)O1)O2 (some centres unmarked) [AM9, C1 Methyl Ester of Ironomycin, reference compound] | 12200 | 5010 | 7460 | 8880 | 5670 | 5890 | 13200 | 15200 | – | – | – | – | – | – | – | – | – | – |
| C#CCN[C@@H]1C=C[C@]2(O[C@H]([C@@H](CC)C(=O)[C@@H](C)[C@@H](O)[C@H](C)[C@@H]3O[C@@H]([C@@H](CC)C(=O)O)CC[C@@H]3C)[C@@H](C)C[C@H]2C)O[C@@]12CC[C@@](C)([C@H]1CC[C@](O)(CC)[C@H](C)O1)O2 [Ironomycin, reference compound] | 120 | 180 | 2600 | 720 | 2670 | 630 | 160 | 1790 | – | – | – | – | – | – | – | – | – | – |
| C#CCN[C@H]1C=C[C@]2(O[C@H]([C@@H](CC)C(=O)[C@@H](C)[C@@H](O)[C@H](C)[C@@H]3O[C@@H]([C@@H](CC)C(=O)OC4O[C@@H]5O[C@]6(C)CC[C@H]7[C@H](C)CC[C@@H]([C@H]4C)[C@@]57OO6)CC[C@@H]3C)[C@@H](C)C[C@H]2C)O[C@@]12CC[C@@](C)([C@H]1CC[C@](O)(CC)[C@H](C)O1)O2 (some centres unmarked) [MA-I-096] | – | – | – | – | – | – | – | – | 330 | 520 | 360 | 90 | 690 | 200 | 360 | 1370 | – | – |
| C[C@H]1[C@@H](O)O[C@@H]2O[C@@]3(C)CC[C@H]4[C@H](C)CC[C@@H]1[C@@]24OO3 [DHA, dihydroartemisinin, reference compound] | – | – | – | – | – | – | – | – | 10300 | > 50000 | 21600 | 8080 | 35400 | 2850 | 14200 | 5450 | – | – |
